Patent US11319289B2, “5-hydroxy pyridine-based compound for use as P2X1 and P2X3 receptor antagonist and pharmaceutical composition comprising same” (GWANGJU INSTITUTE OF SCIENCE AND TECHNOLOGY, priority 2017, dated 2022)

Legend:
[1] = system: CIPN rats (mechanical allodynia); test: Antiallodynic effect (von Frey) in chemotherapy-induced peripheral neuropathy (CIPN) rats; assay type: in vivo; settings: Rattus norvegicus, intravenous administration
Protocol: (§1) 3-1. Evaluation of In Vivo Efficacy
(§2) The antiallodynic effects (mechanical allodynia) were evaluated using rats according to a previously reported protocol. In order to evaluate the withdrawal threshold, rats (naive, SNL and CIPN) were placed on a plastic mesh floor of individual plastic cages. The rats were allowed to acclimate to the environment for 30 minutes and examined after intrathecal or intravenous administration to the caudal vein. The control group received the same volume of vehicle (intrathecal administration of saline or DMSO, intravenous administration of DMSO:PEG:PBS=1:6:3 v/v %) as the experimental groups. Evaluation of the mechanical withdrawal threshold was measured in responses to the application of calibrated von Frey filaments (Stoelting, Wood Dale, Ill., USA) to the hind paw of the rats through the holes on the mesh floor underneath the cage using the ‘up and down method’. A series of eight von Frey filaments (0.4, 0.7, 1.2, 2.0, 3.6, 5.5, 8.5, and 15 g) was applied perpendicular to the sole of the hind paw for 5 seconds while the head was bent. Active withdrawal or flinching of the paw was considered as a positive reaction. The absence of response in the rats, when a pressure was applied to 15 g von Frey filament, was used as a cut-off value. Only rats with definite allodynia (i.e., mechanical withdrawal threshold: less than 4 g after SNL or less than 5 g after CIPN) were tested. The rats after termination of the experiments were euthanized through an overdose of sevoflurane. The withdrawal threshold data for the von Frey filament test was calculated as % MPE (maximum possible effect) based on the following Calculation Equation: % MPE=[(Post-drug threshold−Post-injured baseline threshold)/(Cutoff threshold−post-injured baseline threshold)×100]. Dose-response data were analyzed using Scheffe's post hoc test and one-way analysis of variance (ANOVA).

[2] = system: SNL rats (mechanical allodynia); test: Antiallodynic effect (von Frey) in spinal nerve ligation (SNL) rats; assay type: in vivo, rat; settings: for ED50: Rattus norvegicus, antiallodynic effect, intravenous administration
Protocol: as §1, §2

[3] = system: neuropathic pain (NeP) animal models; test: Efficacy in neuropathic pain (NeP) animal models, model not specified; assay type: in vivo, rat; settings: Rattus norvegicus, read-out: ED50 of clinical drugs for NeP
Protocol: as §1, §2

In the case of `CCCc1nc(Cc2cccc(Oc3ccccc3)c2)c(C)c(C(=O)OCCN2C(=O)c3ccccc3C2=O)c1O` [Compound 46c, 2-phthalimidoethyl 3-hydroxy-5-methyl-6-(3-phenoxybenzyl)-2-propylisonicotinate], the ED50 [1] was 3.28 mg/kg and the ED50 [2] was 2.97 mg/kg.

In the case of `CCCc1nc(Cc2cccc(Oc3ccccc3)c2)c(C)c(C(=O)OC(CC)CC)c1O` [Compound 46g, Pentan-3-yl 3-hydroxy-5-methyl-6-(3-phenoxybenzyl)-2-propylisonicotinate], the ED50 [1] was 3.66 mg/kg and the ED50 [2] was 3.42 mg/kg.

In the case of `CCCc1nc(Cc2cccc(Oc3ccccc3)c2)c(C)c(C(=O)OC2CCNCC2)c1O` [Compound 47, Piperidin-4-yl 3-hydroxy-5-methyl-6-(3-phenoxybenzyl)-2-propylisonicotinate], the ED50 [1] was 3.77 mg/kg and the ED50 [2] was 3.35 mg/kg.

For `CCCc1nc(Cc2cccc(Oc3ccccc3)c2)c(C)c(C(=O)OCC)c1O` [Compound 48, Ethyl 3-hydroxy-5-methyl-6-(3-phenoxybenzyl)-2-propylisonicotinate], the ED50 [1] was 3.87 mg/kg and the ED50 [2] was 3.52 mg/kg.

`CCCc1nc(Cc2cccc(Oc3ccccc3)c2)c(C)c(C(=O)OC2CCCC2)c1O` [Compound 46h, Cyclopentyl 3-hydroxy-5-methyl-6-(3-phenoxybenzyl)-2-propylisonicotinate] gave an ED50 [1] of 3.91 mg/kg and an ED50 [2] of 3.64 mg/kg.

With `CCCCCCCCOC(=O)c1c(C)c(Cc2cccc(Oc3ccccc3)c2)nc(CCC)c1O` [Compound 46b, Octyl 3-hydroxy-5-methyl-6-(3-phenoxybenzyl)-2-propylisonicotinate] the ED50 [1] was 2.93 mg/kg and the ED50 [2] was 2.47 mg/kg.

For `CCCc1nc(Cc2cccc(Oc3ccccc3)c2)c(C)c(C(=O)OCCc2ccccc2)c1O` [Compound 46a, Phenethyl 3-hydroxy-5-methyl-6-(3-phenoxybenzyl)-2-propylisonicotinate], the ED50 [1] was 3.02 mg/kg and the ED50 [2] was 2.31 mg/kg.

`CCCc1nc(Cc2cccc(Oc3ccccc3)c2)c(C)c(C(=O)OCCCCN2C(=O)c3ccccc3C2=O)c1O` [Compound 46d, 4-phthalimidobutyl 3-hydroxy-5-methyl-6-(3-phenoxybenzyl)-2-propylisonicotinate] showed an ED50 [1] of 3.94 mg/kg and an ED50 [2] of 3.12 mg/kg.

For `CC(C)C[C@H](CN)CC(=O)O` [pregabalin, reference compound], the ED50 [3] was 4.21 mg/kg and the “antiallodynic efficacy, MPE %” value ([2]; 1 μg, intrathecal administration) was 65±9%.

With `CCCc1nc(Cc2cccc(Oc3ccccc3)c2)c(C)c(C(=O)OCCN2CCCC2)c1O` [Compound 46e, 2-(pyrrolidin-1-yl)ethyl 3-hydroxy-5-methyl-6-(3-phenoxybenzyl)-2-propylisonicotinate] the ED50 [1] was 3.55 mg/kg and the ED50 [2] was 3.02 mg/kg.

With `COc1cccc(C2(O)CCCCC2CN(C)C)c1` (stereo not shown) [tramadol, reference compound] the ED50 [3] was 4.67 mg/kg.

In the case of `CCCc1nc(Cc2cccc(Oc3ccccc3)c2)c(C)c(C(=O)OC(C)C)c1O` [Compound 46f, Isopropyl 3-hydroxy-5-methyl-6-(3-phenoxybenzyl)-2-propylisonicotinate], the ED50 [1] was 3.08 mg/kg and the ED50 [2] was 2.78 mg/kg.

Compound `CCCc1nc(Cc2cccc(Oc3ccccc3)c2)c(C)c(C(=O)OC2CCOC2)c1O` (stereo not shown) [Compound 46i, Tetrahydrofuran-3-yl 3-hydroxy-5-methyl-6-(3-phenoxybenzyl)-2-propylisonicotinate] has an ED50 [1] of 3.56 mg/kg and an ED50 [2] of 2.87 mg/kg.
